Earlier results in patent US20110224245A1, “Treatment Of Neurological Disorders Using Huperzine” (President and Fellows of Harvard College, priority 2008, published 2011).

System: 6 Hz seizures
Conditions: established antiepileptic drugs; cited from earlier work

Compound | efficacy in the 6 Hz psychomotor seizure model
NC(=O)N1c2ccccc2C=Cc2ccccc21 [carbamazepine] | limited efficacy
Nc1nnc(-c2cccc(Cl)c2Cl)c(N)n1 [lamotrigine] | limited efficacy
O=C1NC(=O)C(c2ccccc2)(c2ccccc2)N1 [phenyloin] | limited efficacy
CC1(C)O[C@@H]2[C@@H](CO[C@@]3(COS(N)(=O)=O)OC(C)(C)O[C@@H]23)O1 [topiramate] | limited efficacy
